Results published in article PMC5041959, “A high-content EMT screen identifies multiple receptor tyrosine kinase inhibitors with activity on TGFβ receptor” (Oncotarget, 2016).
Like-named read-outs stand apart in the source and are kept apart here.

What was measured:
NMuMG cells [1] = assay: High-content microscopy EMT screen in TGFβ-treated NMuMG cells (FA, SF, FN, cell count); type: cell-based, murine
Py2T cells = assay: High-content microscopy EMT assay in TGFβ-treated Py2T breast cancer cells; type: cell-based, murine; details: Py2T
[2] = mice, single dose of 50 mg/kg; cited from earlier work
TGFBR1 = target: T1, TGFBR1 (Homo sapiens, UniProt P36897); assay: Biochemical kinase profiling (33PanQinase radiometric assay)
T1 sequence (P36897 34-503): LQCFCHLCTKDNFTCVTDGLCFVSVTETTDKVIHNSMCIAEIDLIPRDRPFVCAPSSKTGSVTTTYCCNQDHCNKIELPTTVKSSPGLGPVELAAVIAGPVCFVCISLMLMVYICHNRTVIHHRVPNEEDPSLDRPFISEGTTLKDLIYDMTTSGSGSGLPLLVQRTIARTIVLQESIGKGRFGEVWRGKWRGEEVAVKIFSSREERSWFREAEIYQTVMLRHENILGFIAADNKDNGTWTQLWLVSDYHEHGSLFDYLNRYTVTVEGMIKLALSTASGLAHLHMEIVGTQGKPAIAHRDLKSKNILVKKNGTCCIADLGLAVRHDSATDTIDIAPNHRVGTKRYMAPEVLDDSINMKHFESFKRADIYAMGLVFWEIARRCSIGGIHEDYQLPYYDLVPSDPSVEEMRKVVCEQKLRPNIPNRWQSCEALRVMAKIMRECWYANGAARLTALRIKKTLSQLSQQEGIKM

TGFBR2 = TGFBR2 (Homo sapiens, UniProt P37173); assay: as above
NMuMG cells [3] = assay: E-cadherin, ZO1 and vimentin immunofluorescence in TGFβ-treated NMuMG cells; type: cell-based, murine; details: four days TGFβ plus inhibitor
Procedure: NMuMG and Py2T cells were trypsinized, washed, seeded at 1000 cells/well, resuspended in 40 μl growth medium with a Multidrop-384 (Titertek) in 384-well microplates (Greiner, 781091), and grown overnight at 37°C, 5% CO2. The next day, 111 μl growth medium was added with the Multidrop-384 to 1 μl of the 2 mM library compounds of which 10 μl was transferred with a 384-well pipettor (VPrep, Agilent, US) to the cell assay plate and equilibrated for 10 min (final compound concentration 3 μM). For screenings at 300 nM or 30 nM, the compounds were diluted 1:10 or 1:100 in growth medium, respectively, before use. […]
Cells were imaged using the automated epifluorescence microscope ImageXpress Micro from Molecular Devices (Sunnyvale CA, USA) equipped with a plate-loading robot (CRS Catalyst, Thermo Scientific). […] The images were automatically analyzed by MetaXpress and segmented into sub-cellular structures based on morphological features such as object size and fluorescence distribution. Fluorescence distribution was a measure of the threshold intensity above local background and was adjusted for all parameters (nuclei, FA, SF and FN) by means of the respective positive and negative controls to compensate for inter-experimental variations between the different screening batches. […] Vimentin was quantified similar to SF and FN using the Angiogenesis module. […]

[4] = cited from earlier work
c-KIT = target: T2, c-KIT (Homo sapiens, UniProt P10721); assay: Biochemical kinase profiling (33PanQinase radiometric assay); details: ATP at apparent Km
T2 construct: purchased ProQinase (Freiburg, Germany)

VEGFR1 = target: T3, VEGFR1 (Homo sapiens, UniProt P17948); assay: as above; details: ATP at apparent Km
T3 construct: purchased ProQinase (Freiburg, Germany)

VEGFR3 = target: T4, VEGFR3 (Homo sapiens, UniProt P35916); assay: as above; details: ATP at apparent Km
T4 construct: purchased ProQinase (Freiburg, Germany)

EGFR = EGFR (Homo sapiens, UniProt P00533); assay: as above; details: read-out: EGFR IC50; ATP at apparent Km
FGFR1 = FGFR1 (Homo sapiens, UniProt P11362); assay: as above; details: read-out: FGFR1 IC50; ATP at apparent Km
FGFR2 = FGFR2 (Homo sapiens, UniProt P21802); assay: as above; details: read-out: FGFR2 IC50; ATP at apparent Km
FGFR3 = FGFR3 (Homo sapiens, UniProt P22607); assay: as above; details: read-out: FGFR3 IC50; ATP at apparent Km
FGFR4 = FGFR4 (Homo sapiens, UniProt P22455); assay: as above; details: read-out: FGFR4 IC50; ATP at apparent Km
PDGFRA = PDGFRA (Homo sapiens, UniProt P16234); assay: as above; details: read-out: PDGFRA IC50; ATP at apparent Km
PDGFRB = PDGFRB (Homo sapiens, UniProt P09619); assay: as above; details: read-out: PDGFRB IC50; ATP at apparent Km
SRC = SRC (Homo sapiens, UniProt P12931); assay: as above; details: read-out: SRC IC50; ATP at apparent Km
[5] = cited from earlier work; remark: listed apart in the source
VEGFR2 = target: T5, VEGFR2 (Homo sapiens, UniProt P35968); assay: Biochemical kinase profiling (33PanQinase radiometric assay); details: ATP at apparent Km
T5 construct: purchased ProQinase (Freiburg, Germany)

[6] = Mus musculus, 96 h; NMuMG, TGFβ1 2 ng/ml plus compound, 4 days; parameter decreased by 50%; read-out: FA IC50 (focal adhesion formation)
[7] = Mus musculus, 96 h; NMuMG, TGFβ1 2 ng/ml plus compound, 4 days; parameter decreased by 50%; read-out: FN IC50 (fibronectin patch formation)
[8] = Mus musculus, 96 h; NMuMG, TGFβ1 2 ng/ml plus compound, 4 days; parameter decreased by 50%; read-out: SF IC50 (stress fibers)
[9] = Mus musculus; NMuMG; cell count decreased by 50% compared to DMSO control; read-out: Tox IC50
[10] = Mus musculus; NMuMG; mean of IC50 values obtained for FA, SF, FN; read-out: EMT (FA/SF/FN) combined IC50
[11] = Mus musculus; read-out: CCI IC50 (cell count increase)
[12] = Mus musculus; read-out: Emax (maximal effect on cell count)
[13] = NMuMG, TGFβ1 2 ng/ml plus compound, 4 days; parameter decreased by 50%; read-out: FA IC50 (focal adhesion formation)
[14] = NMuMG, TGFβ1 2 ng/ml plus compound, 4 days; parameter decreased by 50%; read-out: FN IC50 (fibronectin patch formation)
[15] = NMuMG, TGFβ1 2 ng/ml plus compound, 4 days; parameter decreased by 50%; read-out: SF IC50 (stress fibers)
[16] = NMuMG; cell count decreased by 50% compared to DMSO control; read-out: Tox IC50
[17] = NMuMG; cell count increased by 50% compared to 100% with 10 μM SB-431542; read-out: CCI IC50 (cell count increase)
[18] = NMuMG; compared to reference 10 μM SB-431542 = 100%
[19] = NMuMG; mean of IC50 values obtained for FA, SF, FN; read-out: EMT (FA/SF/FN) combined IC50
[20] = read-out: TGFBR2 IC50, ATP at apparent Km

Sequence of TGFBR2 (P37173 23-567): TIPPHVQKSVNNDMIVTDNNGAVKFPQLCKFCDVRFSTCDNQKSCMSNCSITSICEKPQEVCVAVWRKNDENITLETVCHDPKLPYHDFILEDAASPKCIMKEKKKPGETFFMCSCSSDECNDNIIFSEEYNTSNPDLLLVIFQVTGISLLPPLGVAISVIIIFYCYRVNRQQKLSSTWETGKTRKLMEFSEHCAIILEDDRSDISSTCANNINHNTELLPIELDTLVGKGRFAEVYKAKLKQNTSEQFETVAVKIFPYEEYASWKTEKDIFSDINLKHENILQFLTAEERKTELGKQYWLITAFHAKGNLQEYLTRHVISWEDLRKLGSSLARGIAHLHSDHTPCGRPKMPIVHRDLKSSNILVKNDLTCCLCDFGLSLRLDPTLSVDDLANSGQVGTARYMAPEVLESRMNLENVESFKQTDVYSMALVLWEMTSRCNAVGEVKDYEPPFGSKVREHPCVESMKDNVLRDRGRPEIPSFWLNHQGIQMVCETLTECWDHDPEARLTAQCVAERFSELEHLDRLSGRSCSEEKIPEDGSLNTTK
Sequence of FGFR2 (P21802 22-821): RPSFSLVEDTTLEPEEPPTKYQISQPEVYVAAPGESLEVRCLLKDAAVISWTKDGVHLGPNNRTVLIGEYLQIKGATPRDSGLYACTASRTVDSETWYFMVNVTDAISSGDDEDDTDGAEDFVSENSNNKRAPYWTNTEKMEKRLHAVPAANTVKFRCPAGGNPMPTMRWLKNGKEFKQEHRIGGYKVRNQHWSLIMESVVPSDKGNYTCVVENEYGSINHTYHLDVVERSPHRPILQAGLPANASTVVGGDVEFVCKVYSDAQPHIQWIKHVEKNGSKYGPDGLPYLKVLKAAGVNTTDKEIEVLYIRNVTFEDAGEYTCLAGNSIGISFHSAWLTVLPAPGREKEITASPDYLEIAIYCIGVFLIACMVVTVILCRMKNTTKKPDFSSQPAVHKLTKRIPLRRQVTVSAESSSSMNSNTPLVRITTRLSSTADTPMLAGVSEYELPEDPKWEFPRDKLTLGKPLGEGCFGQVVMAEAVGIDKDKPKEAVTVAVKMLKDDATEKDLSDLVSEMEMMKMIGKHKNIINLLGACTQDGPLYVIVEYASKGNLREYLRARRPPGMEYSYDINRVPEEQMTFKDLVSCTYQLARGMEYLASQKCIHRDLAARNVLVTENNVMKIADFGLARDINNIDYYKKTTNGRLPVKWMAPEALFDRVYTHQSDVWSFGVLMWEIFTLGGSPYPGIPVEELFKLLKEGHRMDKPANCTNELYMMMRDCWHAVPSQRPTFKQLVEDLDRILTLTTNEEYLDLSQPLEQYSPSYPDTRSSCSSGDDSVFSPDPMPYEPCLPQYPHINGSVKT
Sequence of FGFR1 (P11362 22-822): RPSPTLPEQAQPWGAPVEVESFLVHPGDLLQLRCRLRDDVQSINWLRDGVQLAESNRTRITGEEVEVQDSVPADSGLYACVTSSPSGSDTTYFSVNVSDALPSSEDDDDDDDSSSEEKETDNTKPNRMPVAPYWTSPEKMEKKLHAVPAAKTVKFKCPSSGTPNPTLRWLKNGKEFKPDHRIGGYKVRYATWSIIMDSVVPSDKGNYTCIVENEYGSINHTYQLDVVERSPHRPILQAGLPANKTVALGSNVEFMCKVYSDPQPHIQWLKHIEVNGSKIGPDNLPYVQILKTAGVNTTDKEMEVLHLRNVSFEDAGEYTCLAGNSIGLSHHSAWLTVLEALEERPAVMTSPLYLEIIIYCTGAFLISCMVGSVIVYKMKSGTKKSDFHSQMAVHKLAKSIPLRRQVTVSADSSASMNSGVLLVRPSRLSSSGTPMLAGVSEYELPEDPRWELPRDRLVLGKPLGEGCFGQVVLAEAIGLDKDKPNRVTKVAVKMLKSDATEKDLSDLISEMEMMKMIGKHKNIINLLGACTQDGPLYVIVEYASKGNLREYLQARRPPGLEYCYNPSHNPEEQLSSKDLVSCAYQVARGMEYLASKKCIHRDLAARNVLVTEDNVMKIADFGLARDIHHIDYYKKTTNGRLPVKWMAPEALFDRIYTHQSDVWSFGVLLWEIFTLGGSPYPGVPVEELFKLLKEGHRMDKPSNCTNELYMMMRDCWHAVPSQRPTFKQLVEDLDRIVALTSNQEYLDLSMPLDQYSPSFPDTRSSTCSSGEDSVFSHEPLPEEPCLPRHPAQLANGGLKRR
Sequence of FGFR3 (P22607 23-806): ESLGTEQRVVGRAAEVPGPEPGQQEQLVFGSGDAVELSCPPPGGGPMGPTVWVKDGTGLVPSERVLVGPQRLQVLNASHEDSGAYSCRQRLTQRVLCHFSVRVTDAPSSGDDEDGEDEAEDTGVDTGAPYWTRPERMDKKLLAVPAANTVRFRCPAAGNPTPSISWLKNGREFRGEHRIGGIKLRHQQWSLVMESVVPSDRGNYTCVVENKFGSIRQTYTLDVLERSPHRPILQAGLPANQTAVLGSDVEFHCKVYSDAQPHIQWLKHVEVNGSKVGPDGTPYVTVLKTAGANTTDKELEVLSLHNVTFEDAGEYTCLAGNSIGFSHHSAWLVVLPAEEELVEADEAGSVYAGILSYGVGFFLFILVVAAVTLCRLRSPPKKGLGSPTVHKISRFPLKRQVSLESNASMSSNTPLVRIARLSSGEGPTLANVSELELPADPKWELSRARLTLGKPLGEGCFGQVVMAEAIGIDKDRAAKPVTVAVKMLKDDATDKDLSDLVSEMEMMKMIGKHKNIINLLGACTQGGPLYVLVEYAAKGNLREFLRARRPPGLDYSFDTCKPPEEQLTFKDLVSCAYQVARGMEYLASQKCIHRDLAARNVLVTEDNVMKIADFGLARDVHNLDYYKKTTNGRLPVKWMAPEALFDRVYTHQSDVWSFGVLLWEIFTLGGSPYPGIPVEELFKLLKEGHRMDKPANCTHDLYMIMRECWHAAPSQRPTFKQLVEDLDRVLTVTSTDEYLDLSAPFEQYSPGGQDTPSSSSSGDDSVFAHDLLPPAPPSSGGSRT
Sequence of FGFR4 (P22455 22-802): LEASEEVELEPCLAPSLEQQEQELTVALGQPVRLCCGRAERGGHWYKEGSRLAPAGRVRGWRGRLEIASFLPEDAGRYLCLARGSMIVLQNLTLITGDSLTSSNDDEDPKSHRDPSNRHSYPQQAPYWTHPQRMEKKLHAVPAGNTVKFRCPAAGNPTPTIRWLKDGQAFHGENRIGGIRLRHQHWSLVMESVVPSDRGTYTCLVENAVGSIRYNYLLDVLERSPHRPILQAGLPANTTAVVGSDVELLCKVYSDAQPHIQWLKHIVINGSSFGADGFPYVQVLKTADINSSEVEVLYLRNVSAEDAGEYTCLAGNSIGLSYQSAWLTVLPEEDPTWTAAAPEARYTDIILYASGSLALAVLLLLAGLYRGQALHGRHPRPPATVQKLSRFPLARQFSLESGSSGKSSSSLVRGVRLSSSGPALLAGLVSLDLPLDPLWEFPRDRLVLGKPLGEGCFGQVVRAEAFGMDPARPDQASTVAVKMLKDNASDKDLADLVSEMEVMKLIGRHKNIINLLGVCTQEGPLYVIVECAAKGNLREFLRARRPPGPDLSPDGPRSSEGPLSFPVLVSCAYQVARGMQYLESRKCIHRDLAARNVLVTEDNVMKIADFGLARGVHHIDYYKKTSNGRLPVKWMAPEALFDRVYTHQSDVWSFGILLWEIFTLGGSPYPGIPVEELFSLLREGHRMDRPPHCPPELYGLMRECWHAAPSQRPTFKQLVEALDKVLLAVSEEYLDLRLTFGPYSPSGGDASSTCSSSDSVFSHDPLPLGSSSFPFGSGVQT
Sequence of EGFR (P00533 25-1210): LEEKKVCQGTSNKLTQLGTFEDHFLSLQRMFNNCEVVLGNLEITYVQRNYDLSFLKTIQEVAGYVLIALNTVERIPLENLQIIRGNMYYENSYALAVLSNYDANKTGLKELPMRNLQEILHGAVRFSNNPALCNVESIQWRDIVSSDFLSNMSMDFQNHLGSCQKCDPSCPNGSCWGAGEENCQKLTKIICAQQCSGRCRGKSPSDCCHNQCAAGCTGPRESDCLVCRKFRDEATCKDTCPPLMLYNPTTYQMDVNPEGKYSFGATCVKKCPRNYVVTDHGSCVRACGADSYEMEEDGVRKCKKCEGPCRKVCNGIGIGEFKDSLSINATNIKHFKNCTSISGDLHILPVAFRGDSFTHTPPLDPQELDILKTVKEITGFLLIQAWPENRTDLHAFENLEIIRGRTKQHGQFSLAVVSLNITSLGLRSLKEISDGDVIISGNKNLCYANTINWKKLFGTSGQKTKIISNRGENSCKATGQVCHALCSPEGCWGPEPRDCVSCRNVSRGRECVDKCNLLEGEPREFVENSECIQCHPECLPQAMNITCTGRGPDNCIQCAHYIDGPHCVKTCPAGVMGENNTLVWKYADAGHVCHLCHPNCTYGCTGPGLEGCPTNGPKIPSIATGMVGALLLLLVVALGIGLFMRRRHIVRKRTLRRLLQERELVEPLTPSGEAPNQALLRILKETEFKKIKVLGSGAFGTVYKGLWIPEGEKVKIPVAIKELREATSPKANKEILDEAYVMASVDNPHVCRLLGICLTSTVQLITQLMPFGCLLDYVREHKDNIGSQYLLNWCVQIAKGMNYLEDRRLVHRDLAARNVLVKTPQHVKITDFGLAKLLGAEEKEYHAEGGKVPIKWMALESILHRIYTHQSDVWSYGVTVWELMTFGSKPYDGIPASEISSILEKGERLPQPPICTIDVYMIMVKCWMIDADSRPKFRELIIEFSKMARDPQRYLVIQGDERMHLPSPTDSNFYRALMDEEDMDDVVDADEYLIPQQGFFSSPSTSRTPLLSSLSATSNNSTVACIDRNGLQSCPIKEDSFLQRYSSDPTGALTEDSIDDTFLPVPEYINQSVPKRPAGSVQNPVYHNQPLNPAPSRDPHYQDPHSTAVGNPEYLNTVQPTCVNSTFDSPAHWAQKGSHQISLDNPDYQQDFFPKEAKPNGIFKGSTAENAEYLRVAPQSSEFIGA

For COC(=O)c1ccc2c(c1)NC(=O)/C2=C(\Nc1ccc(N(C)C(=O)CN2CCN(C)CC2)cc1)c1ccccc1 [Nintedanib], the IC50 (NMuMG cells [1]; [6]) was 2630 nM, the IC50 (NMuMG cells [1]; [7]) was 1180 nM and the IC50 (NMuMG cells [1]; [8]) was 5060 nM. It also gave an IC50 (NMuMG cells [1]; [9]) of 23000 nM, an IC50 (NMuMG cells [1]; [10]) of 2960 nM and an IC50 (NMuMG cells [1]; [11]) of 1110 nM. For the same compound, the Emax (NMuMG cells [1]; [12]) was 26.2%, the IC50 (Py2T cells; Mus musculus, cell count decreased by 50% compared to DMSO control, read-out: Tox IC50) was 502 nM and the “FA IC50 (focal adhesions)” value (Py2T cells; TGFβ plus compound, 4 days) was “n.m”. For the same compound, the “FN IC50 (fibronectin patches)” value (Py2T cells; TGFβ plus compound, 4 days) was “n.m”, the “SF IC50 (stress fibers)” value (Py2T cells; TGFβ plus compound, 4 days) was “n.m” and the “Emax (maximal effect on cell count)” value (Py2T cells; compared to reference 10 μM SB-431542 = 100%) was “n.m”. The Cmax [2] was roughly 1000 nM, the IC50 (TGFBR1) was 505 nM and the IC50 (TGFBR2) was greater than 10 µM.

For CNC(=O)c1cc(Oc2ccc(NC(=O)Nc3ccc(Cl)c(C(F)(F)F)c3)cc2)ccn1 [Sorafenib], the IC50 (NMuMG cells [1]; Mus musculus, 96 h, read-out: FA IC50 (focal adhesion formation)) was 2090 nM, the IC50 (NMuMG cells [1]; Mus musculus, 96 h, read-out: FN IC50 (fibronectin patch formation)) was 1350 nM and the IC50 (NMuMG cells [1]; Mus musculus, 96 h, read-out: SF IC50 (stress fibers)) was 3930 nM. It also gave an IC50 (NMuMG cells [1]; Mus musculus, read-out: CCI IC50 (cell count increase)) of 103 nM, an IC50 (NMuMG cells [1]; Mus musculus, read-out: EMT (FA/SF/FN) combined IC50) of 2460 nM and an Emax (NMuMG cells [1]; Mus musculus, read-out: Emax (maximal effect on cell count)) of 17.5%. For the same compound, the IC50 (NMuMG cells [1]; Mus musculus, read-out: Tox IC50) was 12600 nM, the “effect on TGFβ-induced loss of E-cadherin and ZO1 from junctions and vimentin filament formation” value (NMuMG cells [3]) was “only marginally stabilized” and the plasma protein binding [4] was 99.7%.

With Cc1cccc(-c2[nH]ncc2-c2ccc3ncccc3n2)n1 [RepSox] the IC50 (NMuMG cells [1]; [13]) was 47 nM, the IC50 (NMuMG cells [1]; [14]) was 44 nM and the IC50 (NMuMG cells [1]; [15]) was 55 nM. For the same compound, the IC50 (NMuMG cells [1]; [16]) was greater than 3000 nM, the IC50 (NMuMG cells [1]; [17]) was 88 nM and the “Emax (maximal effect on cell count)” value (NMuMG cells [1]; [18]) was 100%. The IC50 (NMuMG cells [1]; [19]) was 48.7 nM, the IC50 (c-KIT) was 5.24 µM and the IC50 (VEGFR1) was 1080 nM. For the same compound, the IC50 (VEGFR3) was 1640 nM, the IC50 (EGFR) was greater than 10 µM and the IC50 (FGFR1) was greater than 10 µM. For the same compound, the IC50 (FGFR2) was 4.76 µM, the IC50 (FGFR3) was greater than 10 µM and the IC50 (FGFR4) was greater than 10 µM. The IC50 (PDGFRA) was greater than 10 µM, the IC50 (PDGFRB) was 4.37 µM and the IC50 (SRC) was 6.11 µM. For the same compound, the IC50 (TGFBR2; [20]) was 3.07 µM.

Cc1ccc(Nc2nccc(N(C)c3ccc4c(C)n(C)nc4c3)n2)cc1S(N)(=O)=O [Pazopanib] showed an IC50 (NMuMG cells [1]; [6]) of 8030 nM, an IC50 (NMuMG cells [1]; [7]) of 3950 nM and an IC50 (NMuMG cells [1]; [8]) of 7300 nM. The IC50 (NMuMG cells [1]; Mus musculus, combined FA/SF/FN; read-out: IC50 for blocking EMT in NMuMG cells) was 6400 nM, the IC50 (NMuMG cells [1]; [9]) was 15700 nM and the IC50 (NMuMG cells [1]; [10]) was 6430 nM. For the same compound, the IC50 (NMuMG cells [1]; [11]) was 1080 nM, the Emax (NMuMG cells [1]; [12]) was 17.6% and the plasma protein binding [4] was “above 99.9%”. For the same compound, the “steady state blood levels required to be active in patients” value [5] was “at least 40 μM”.

In the case of Cc1cccc(-c2[nH]c(C(C)(C)C)nc2-c2ccc3nccnc3c2)n1 [SB-525334], the IC50 (NMuMG cells [1]; [13]) is reported as 276 nM, the IC50 (NMuMG cells [1]; [14]) is reported as 261 nM and the IC50 (NMuMG cells [1]; [15]) is reported as 243 nM. The IC50 (NMuMG cells [1]; [16]) was greater than 3000 nM, the IC50 (NMuMG cells [1]; [17]) was 380 nM and the “Emax (maximal effect on cell count)” value (NMuMG cells [1]; [18]) was 100%. The IC50 (NMuMG cells [1]; [19]) was 260 nM, the IC50 (c-KIT) was greater than 10 µM and the IC50 (VEGFR1) was less than 0.3 nM. For the same compound, the IC50 (VEGFR2) was 3.52 µM, the IC50 (VEGFR3) was greater than 10000 nM and the IC50 (EGFR) was greater than 10 µM. The IC50 (FGFR1) was greater than 10 µM, the IC50 (FGFR2) was greater than 10 µM and the IC50 (FGFR3) was greater than 10 µM. For the same compound, the IC50 (FGFR4) was greater than 10 µM, the IC50 (PDGFRA) was greater than 10 µM and the IC50 (PDGFRB) was greater than 10 µM. The IC50 (SRC) was 5.62 µM and the IC50 (TGFBR2; [20]) was greater than 10 µM.
